Molecules are shown by their SMILES.

By melting point is commonly meant the temperature, or range, at which the solid turns liquid. As to `CCOC(=O)N1CCc2nc3cccc(Cl)c3c(C)c2CC1`, the melting point was 138 °C.
To `CS(=O)(=O)CC(=O)Nc1c(C(=O)c2ccccc2)[nH]c2cc(Cl)ccc12` belongs 217 to 220 °C; to `Cc1ccc(C=NC2=NN(c3ccc4ccccc4c3)CC2)cc1`, 184 to 186 °C; to `COc1cc(Cc2cnc(NCCCCc3ncc(Br)cc3C)[nH]c2=O)ccn1`, 120 to 121 °C.
The same measure for `CCCCCCCCc1ccc2nc(-c3ccc(COC(CCCCCC)C(F)(F)F)cc3)sc2c1` (stereo unspecified): 37.2 °C.
The same measure for `CCC[C@H]1[C@@H](O)CC(=O)N1c1ccc(C#N)c(Cl)c1`: 143 to 146 °C; for `N=C(Nc1cc(Cl)cc(NC(=O)/C=C/c2ccccc2C(F)(F)F)c1)c1cccs1`: 178 to 179 °C.
Take `O=C(CN1CCC(Cc2ccc(F)cc2)CC1)Nc1cccc(NCc2ccccc2)c1`: the melting point lay within 98 to 100 °C.
`Cc1nc2c(OCc3c(Cl)ccc(S(=O)(=O)N4CCC[C@H]4C(=O)NCCCNC(=O)c4ccc(C=NN)cc4)c3Cl)cccn2c1Cl` yielded a melting point of 115 °C.
On to `Brc1cn2cncc2s1`, for which the melting point fell in the range of 77 to 78 °C.
To `Cc1ccc2c(c1)c(-c1ccc(F)cc1)c(C)n2C1CCN(C)CC1` belongs 110 to 112 °C.
Consider `Cc1cc(C)c(-c2csc(N)n2)c(C)c1`, for which the melting point was found to be 138 °C.
As to `c1cncc(CC2CCN(CC34CC(c5ccccc53)c3ccccc34)CC2)c1`, the melting point lay in the range of 183 to 185 °C.
In turn, `CC1(C2CCC3C4CCC5CC=CCC5(C)C4C(O)CC32C)OCCO1` (stereo unspecified) had a melting point of 141 to 145 °C.
As for `COc1ccc(C[C@H]2C3=C(CCCC3)CCN2C(C)=O)cc1`, the melting point was 80 to 81.5 °C.
The same measure for `CCCCN(C)C(N)=C(C#N)C(N)=S`: 163 to 165 °C; for `Cc1ccc(-c2c(NS(=O)(=O)c3cccc4ccccc34)ncnc2OCCOc2ncc(Br)cn2)cc1`: 204 °C; for `COc1nnc2n1-c1sc(CCC(=O)N3CCOCC3)cc1C(c1ccccc1Cl)=NC2`: 163 to 164 °C.
`CCOCc1nc2c(N)nc3ccccc3c2n1CCCCCS(=O)(=O)NCc1ccc(OC)cc1` showed a melting point of 177 to 178 °C.
Turning to `CC(C)(C)OC(=O)CN(C(=O)CN(C(=O)CN1C(=O)c2ccccc2C1=O)c1ccccc1)c1ccccc1`, the melting point turned out to be 80 °C.
Compound `N#CC1(N2CCCCC2)CCCCC1` showed a melting point of 66 to 68 °C.
The same measure for `COc1cccc(Cn2c(=O)[nH]c3cc(Cl)cc(Cl)c3c2=O)c1`: 216 to 220 °C; for `NC(=O)[C@@H]1[C@H](Nc2c(Br)cnc3[nH]c(-c4cccc(N5CCOCC5)c4)nc23)[C@H]2C=C[C@@H]1C2`: 232 to 234 °C.
`COc1ccc(Nc2nnc(Cc3ccncc3)c3ccccc23)cc1Cl` yielded a melting point of 195 to 197 °C.
To `CCOC(=O)/C=C(/c1ccc(CC)cc1)c1cc(Cl)cc(Cl)c1` belongs 73 to 75 °C; to `COc1cc(C(C)C)ccc1C1(Br)C(=O)c2cccc(NC(C)=O)c2C1=O` (stereo unspecified), 143 to 145 °C.
To `COc1ccc(C(=O)c2ccc(OC)c([N+](=O)[O-])c2)cc1[N+](=O)[O-]` belongs 189 to 190 °C.
To `CC(C)(OCc1cc2nc(Cl)ccc2n1S(=O)(=O)c1ccc2c(c1)CCO2)C(=O)O` belongs 169 °C; to `O=S(=O)(c1ccccc1)c1c(-c2ccc(Cl)cc2)[nH]c(C(F)(F)F)c1Cl`, 158 to 161 °C.
`O=C(O)Cc1c(Cl)cc([N+](=O)[O-])cc1Cl` showed a melting point of 206 to 207 °C.
In the case of `O=C(CC(c1ccccc1)c1ccccc1)N1CCN(CCc2cc3ccccc3o2)CC1`, the melting point is 123 to 124 °C.
The same measure for `CC(Oc1ccc(COc2ccc(Cl)cc2Cl)cc1)C(=O)O` (stereo unspecified): 122 to 123 °C; for `O=C(Nc1cccc(-c2nnn[nH]2)c1)NC1N=C(c2ccccc2F)c2cccc(Cl)c2N(CC(=O)N2CC3CCC(CC3)C2)C1=O` (stereo unspecified): 172 to 180 °C; for `CC1(COc2ccc([N+](=O)[O-])cc2)CC(=O)c2cc(C(=O)O)ccc2O1` (stereo unspecified): 227 to 235 °C.
The same measure for `CC1(C)OC(=O)Nc2ccc(-c3cc(C#N)cc(OC(F)(F)F)c3)cc21`: 227 to 228 °C; for `COc1ccc2c(c1)c(-c1ccccc1)nc1nnc(C)n12`: 251 to 252 °C; for `COc1cc(-c2csc(C(=N)NO)n2)cc(Cl)c1OC`: 169 to 170 °C.
Compound `O=C(c1ccc(F)cc1)C1CCN(CCn2c(-c3ccccc3)nc3ccccc3c2=O)CC1` had a melting point of 144 °C.
Regarding `C=CCC1(C(=O)NCCC)c2ccccc2CCc2ccccc21`, the melting point was in the range of 76 to 79 °C.
To `Cc1oc(-c2ccccc2)nc1COc1ccc(Cn2cc(CO)c(C(C)C)n2)cc1` belongs 98 to 99 °C.
`O=c1oc(-c2ccc(C(F)(F)F)cc2)nc2cc(F)ccc12` had a melting point of 137 to 139 °C.
The same measure for `c1cnc2c(c1)Cc1ncccc1-2`: 85 °C; for `C#Cc1c(-c2ccc(F)cc2)nn(-c2ccccc2)c1C(C)C`: 117 to 118 °C.
To `CC(CCC(=O)c1ccccc1)C1CC=C2C3=C(CCC21C)C1(C)CCC(O)C(C)(C)C1CC3` (stereo unspecified) belongs 196 to 199 °C; to `O=C(O)c1ccn2c1C(C(=O)O)CCC2` (stereo unspecified), 236 to 237 °C; to `N#Cc1cnn(-c2nc(Cl)c(C(F)(F)F)cc2Cl)c1N`, 168 to 171 °C.
The same measure for `CCCCN1C(=O)NC(C(C)O)C1=O` (stereo unspecified): 145 °C; for `CCCc1cc2cc(O)c(F)cc2c(Oc2ccc(/C=C/C(N)=O)cc2)c1-c1ccccc1`: 121 to 124 °C.
In the case of `O=C(c1ccc[nH]1)C1CCCCC1`, the melting point is 83 to 84 °C.
`COC(=O)C(C(=O)OC)c1cc([N+](=O)[O-])ccc1C(=O)O` registered a melting point of 153 °C.
In the case of `Cc1cc(C)cc(C(=O)N(N(C(=O)c2ccc3c(c2C)OCCO3)C(=O)N(C)C)C(C)(C)C)c1`, the melting point lay in the range of 60 to 64 °C.
The same measure for `O=[N+]([O-])c1ccc2c(-n3ccnc3)nnc(NCc3ccc4c(c3)OCO4)c2c1`: 154 to 156 °C; for `O=c1[nH]c2ccc(Cl)cc2n2cc(-c3ccccc3)cc12`: 346 °C; for `CCc1[nH]c(=O)[nH]c1C(=O)c1cccnc1`: 219 to 221 °C.
For `O=C(Nc1ccc(CNc2nc(Cl)nc3cc(I)ccc23)cc1)c1ccc(Cl)nc1`, the melting point was found to be 315 °C.
The same measure for `O=C1C[C@@H]2[C@@H](CC[C@H](CCc3ccccc3)OC3CCCCO3)[C@H](OC(=O)c3ccc(-c4ccccc4)cc3)C[C@@H]2O1` (stereo partly specified): 103 to 105 °C; for `COC(=O)CN(N)c1cc(C)cc(C)c1`: 56 to 58 °C; for `COc1ccc(C2CC(=O)Nc3ccccc3C(=O)C2)cc1` (stereo unspecified): 138 to 140 °C.
`CCCCCc1sc(C(=O)OCC)nc1-c1ccccc1`: the melting point was 51 to 52 °C.
On to `Cc1cc(S(=O)(=O)NC(=O)c2cn3cc(C(F)(F)F)cc(Cl)c3n2)c(C)cc1C#N`, for which the melting point lay within 228 to 229 °C.
The same measure for `CCCCCn1ncc2c(N)c(C(N)=O)cnc21`: 201 to 202 °C.
To `COc1cc(C2=CCN(S(=O)(=O)CC(=O)NO)CC2)ccc1-c1ccccc1` belongs 175 to 177 °C.
Regarding `CC(=O)N1CCN(c2c(F)c(C)c3c(=O)c(C(=O)O)cn(C4CC4)c3c2F)CC1`, the melting point lay within 217 to 220 °C.
On to `CCC(=O)c1cc(C2(c3cccc(O)c3)N=C(N)N(C)C2=O)cn1CC` (stereo unspecified), for which the melting point was 101 °C.
To `CCCc1nc2c(N)nc3cc(OCCN4CCCC4=O)ccc3c2s1` belongs 163 to 166 °C.
The compound `CC1Cc2cc(F)c(F)cc2C1=O` (stereo unspecified) came in with a melting point of 66 to 68 °C.
The same measure for `Cc1cccc(COc2cccc(OCc3ccc(-c4ccccc4)cn3)c2)c1C(=O)O`: 80 to 83 °C; for `O=C1c2sc3ccccc3c2C(=O)c2sc3ccccc3c21`: 315 °C; for `CC1(COCc2ccccc2)COC(C)(C(=O)N(C(N)=O)c2ccccc2)O1` (stereo unspecified): 91 to 94 °C.
The same measure for `Cc1oc(-c2ccccc2)nc1/C=C/c1ccc(COc2ccccc2CC(=O)O)cc1`: 189 to 190 °C; for `CS(=O)(=O)C(C#N)=Cc1c(Cl)n(Cc2ccccc2)c2ccccc12`: 206 °C.
To `CCOc1c(C=NOCc2ccccc2)c(=O)n(C)c(=O)n1C` belongs 93 to 94 °C; to `COc1cc2ccc(C(=O)N3CCN(C(=O)c4cc(OC)c(OC)c(OC)c4)CC3)cc2cc1OC`, 224 to 226 °C; to `N#CCNC(=O)C1(NC(=O)c2ccc(N3CCN(Cc4ccccc4)CC3)cc2)CCCCC1`, 210 to 212 °C.
`COc1ccc(SC(=C2NCCCS2)[N+](=O)[O-])cc1`: the melting point lay within 160 to 162 °C.
To `Fc1ccc(Oc2ccnc3cccnc23)cc1` belongs 122 to 124 °C.
Turning to `CC(=O)Nc1cc(C)c([N+](=O)[O-])cn1`, the melting point lay in the range of 153 to 154 °C.
`CN(C)C(=O)N(C)Cc1ccc(CCn2cnc3cc(-c4ccc(Cl)cc4)sc3c2=O)cc1` returned a melting point of 160 to 165 °C.
The compound `CC(C)(C)OC(=O)N[C@@H](Cc1ccc(O)cc1)C(=O)NCC(=O)NCC(=O)O` showed a melting point of 92 to 94 °C.
In turn, `CCCCOC(=O)C(C#N)C(=O)c1ccc(Cl)cc1[N+](=O)[O-]` (stereo unspecified) came in with a melting point of 56 to 58 °C.
To `CCOC(=O)CCC1=C(C#N)C(c2ccccc2Cl)c2c[nH]nc2N1` (stereo unspecified) belongs 172 to 174 °C; to `CC(=O)c1cccn1[C@@H](Cc1ccc(OCCc2nc(-c3ccccc3)oc2C)cc1)C(=O)O`, 110 to 112 °C; to `CC(C)(CO)NC(=O)c1n[nH]cc1NC(=O)c1ccccn1`, 193 to 195 °C.
To `CCCn1c(=O)c2[nH]c(/C=C/c3ccc(C)c(C)c3)nc2n(CCC)c1=O` belongs 253 to 254 °C.
Take `Cc1cc(C(=O)Nc2cc(-c3c(-c4ccc(F)c(C)c4)nc4cccnn34)ccn2)cc(Cl)n1`: the melting point is 298 to 300 °C.
To `O=C1CCCc2nc(C#Cc3ccccc3)ccc21` belongs 121 to 122 °C.

The record behind these values is a melting point compilation (Tetko et al.; mined from patent text by program, amines drawn as free bases though some values may be those of a salt).
